In PubChem BioAssay (NCI):
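GI50 = concentration required for 50% inhibition of growth. TGI marks complete inhibition of growth.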

How the values were obtained:
Assay in all cases: NCI anticancer screen, dose series, 384-well format
786-0 renal = system: 786-0 renal
BT-549 breast = system: BT-549 breast
CAKI-1 renal = system: CAKI-1 renal
COLO 205 colon = system: COLO 205 colon
DU-145 prostate = system: DU-145 prostate
EKVX NSCLC = system: EKVX NSCLC
HCC-2998 colon = system: HCC-2998 colon
HCT-116 colon = system: HCT-116 colon
HCT-15 colon = system: HCT-15 colon
HOP-92 NSCLC = system: HOP-92 NSCLC
HS 578T breast = system: HS 578T breast
HT29 colon = system: HT29 colon
K-562 leukemia = system: K-562 leukemia
KM12 colon = system: KM12 colon
LOX IMVI melanoma = system: LOX IMVI melanoma
M14 melanoma = system: M14 melanoma
MALME-3M melanoma = system: MALME-3M melanoma
MDA-MB-231 breast = system: MDA-MB-231 breast
MDA-MB-435 melanoma = system: MDA-MB-435 melanoma
MDA-MB-468 breast = system: MDA-MB-468 breast
NCI-H226 lung = system: NCI-H226 lung
NCI-H23 lung = system: NCI-H23 lung
NCI-H322M lung = system: NCI-H322M lung
NCI-H460 NSCLC = system: NCI-H460 NSCLC
NCI/ADR-RES ovarian = system: NCI/ADR-RES ovarian
OVCAR-3 ovarian = system: OVCAR-3 ovarian
OVCAR-4 ovarian = system: OVCAR-4 ovarian
OVCAR-5 ovarian = system: OVCAR-5 ovarian
OVCAR-8 ovarian = system: OVCAR-8 ovarian
PC-3 prostate = system: PC-3 prostate
RPMI-8226 leukemia = system: RPMI-8226 leukemia
RXF 393 renal = system: RXF 393 renal
SF-268 CNS = system: SF-268 CNS
SF-295 CNS = system: SF-295 CNS
SF-539 CNS = system: SF-539 CNS
SK-MEL-2 melanoma = system: SK-MEL-2 melanoma
SK-MEL-28 melanoma = system: SK-MEL-28 melanoma
SK-MEL-5 melanoma = system: SK-MEL-5 melanoma
SK-OV-3 ovarian = system: SK-OV-3 ovarian
SN12C renal = system: SN12C renal
SNB-19 CNS = system: SNB-19 CNS
SNB-75 CNS = system: SNB-75 CNS
SW-620 colon = system: SW-620 colon
T-47D breast = system: T-47D breast
TK-10 renal = system: TK-10 renal
U251 glioblastoma = system: U251 glioblastoma
UACC-257 melanoma = system: UACC-257 melanoma

Cn1cc(CNCC2CCN(c3ncc(C(=O)NO)cn3)CC2)c2ccccc21
GI50 ([…]-0 renal): 22.8 nM | TGI (786-0 renal): 120 nM | GI50 (BT-549 breast): 21.6 nM | TGI (BT-549 breast): 75.8 nM | GI50 (CAKI-1 renal): < 11.2 nM | TGI (CAKI-1 renal): 26 nM | GI50 (COLO 205 colon): < 10 nM | TGI (COLO 205 colon): 18.3 nM | GI50 (DU-145 prostate): < 10 nM | TGI (DU-145 prostate): 22.9 nM | GI50 (EKVX NSCLC): 30.4 nM | TGI (EKVX NSCLC): 303 nM | GI50 (HCC-2998 colon): < 11.1 nM | TGI (HCC-2998 colon): 24.8 nM | GI50 (HCT-116 colon): < 10 nM | TGI (HCT-116 colon): 15.7 nM | GI50 (HCT-15 colon): 49.4 nM | TGI (HCT-15 colon): 300 nM | GI50 (HOP-92 NSCLC): < 12.2 nM | TGI (HOP-92 NSCLC): 31.7 nM | GI50 (HS 578T breast): < 10.4 nM | TGI (HS 578T breast): 22.4 nM | GI50 (HT29 colon): 10 nM | TGI (HT29 colon): 21.6 nM | GI50 (K-562 leukemia): < 10.5 nM | TGI (K-562 leukemia): 22.6 nM | GI50 (KM12 colon): 16.7 nM | TGI (KM12 colon): 63.6 nM | GI50 (LOX IMVI melanoma): 12.1 nM | TGI (LOX IMVI melanoma): 24.9 nM | GI50 (M14 melanoma): < 10 nM | TGI (M14 melanoma): 105 nM | GI50 (MALME-3M melanoma): < 10 nM | TGI (MALME-3M melanoma): < 14.5 nM | GI50 (MDA-MB-231 breast): 14.3 nM | TGI (MDA-MB-231 breast): 37.2 nM | GI50 (MDA-MB-435 melanoma): 12.1 nM | TGI (MDA-MB-435 melanoma): 29.7 nM | GI50 (MDA-MB-468 breast): < 10 nM | TGI (MDA-MB-468 breast): < 10 nM | GI50 (NCI-H226 lung): 31.9 nM | TGI (NCI-H226 lung): 115 nM | GI50 (NCI-H23 lung): 13.1 nM | TGI (NCI-H23 lung): 42.1 nM | GI50 (NCI-H322M lung): 12.3 nM | TGI (NCI-H322M lung): 40.5 nM | GI50 (NCI-H460 NSCLC): < 11.1 nM | TGI (NCI-H460 NSCLC): 37.1 nM | GI50 (NCI/ADR-RES ovarian): 94.9 nM | TGI (NCI/ADR-RES ovarian): 329 nM | GI50 (OVCAR-3 ovarian): 12.2 nM | TGI (OVCAR-3 ovarian): 28.6 nM | GI50 (OVCAR-4 ovarian): 18.9 nM | TGI (OVCAR-4 ovarian): 46.6 nM | GI50 (OVCAR-5 ovarian): < 10 nM | TGI (OVCAR-5 ovarian): 23.6 nM | GI50 (OVCAR-8 ovarian): < 10 nM | TGI (OVCAR-8 ovarian): 21.3 nM | GI50 (PC-3 prostate): < 12.3 nM | TGI (PC-3 prostate): 46.2 nM | GI50 (RPMI-8226 leukemia): < 10 nM | TGI (RPMI-8226 leukemia): < 10 nM | GI50 (RXF 393 renal): 16.2 nM | TGI (RXF 393 renal): 35.5 nM | GI50 (SF-268 CNS): < 10.4 nM | TGI (SF-268 CNS): 24.4 nM | GI50 (SF-295 CNS): 16.1 nM | TGI (SF-295 CNS): 54.4 nM | GI50 (SF-539 CNS): 13.9 nM | TGI (SF-539 CNS): 53 nM | GI50 (SK-MEL-2 melanoma): < 10 nM | TGI (SK-MEL-2 melanoma): 10.6 nM | GI50 (SK-MEL-28 melanoma): < 11 nM | TGI (SK-MEL-28 melanoma): 27.6 nM | GI50 (SK-MEL-5 melanoma): < 10 nM | TGI (SK-MEL-5 melanoma): < 10 nM | GI50 (SK-OV-3 ovarian): 15.5 nM | TGI (SK-OV-3 ovarian): 32.9 nM | GI50 (SN12C renal): 14.1 nM | TGI (SN12C renal): 29.7 nM | GI50 (SNB-19 CNS): 17.3 nM | TGI (SNB-19 CNS): 45.7 nM | GI50 (SNB-75 CNS): 10.1 nM | TGI (SNB-75 CNS): 46.1 nM | GI50 (SW-620 colon): 12.9 nM | TGI (SW-620 colon): 26.2 nM | GI50 (T-47D breast): < 10 nM | TGI (T-47D breast): 15.5 nM | GI50 (TK-10 renal): 12.2 nM | TGI (TK-10 renal): 38.3 nM | GI50 (U251 glioblastoma): 11.3 nM | TGI (U251 glioblastoma): 24.1 nM | GI50 (UACC-257 melanoma): < 10 nM | TGI (UACC-257 melanoma): 23.6 nM
